Data taken from patent publication US12227500B2, “Substituted pyrrolo[2,3-b]pyridines for suppressing toxic endoplasmic reticulum stress” (THE TRUSTEES OF COLUMBIA UNIVERSITY IN THE CITY OF NEW YORK, priority 2018, dated 2025).
Where two headings read alike, the source gives them in different places.

What was measured:
Assay in all cases: Radiolabeled ATP kinase assay, panel of 371 kinases (Table S6)
Format in all cases: biochemical
[1] = target: T1, panel of 371 human kinases (Homo sapiens, UniProt Q9H2G2); conditions: SLK/STK2; 0.1 μM; 10 μM ATP; read-out: % Enzyme Activity (relative to DMSO controls)
T1 construct: purchased Reaction Biology Corp
T1 sequence (Q9H2G2 whole entry): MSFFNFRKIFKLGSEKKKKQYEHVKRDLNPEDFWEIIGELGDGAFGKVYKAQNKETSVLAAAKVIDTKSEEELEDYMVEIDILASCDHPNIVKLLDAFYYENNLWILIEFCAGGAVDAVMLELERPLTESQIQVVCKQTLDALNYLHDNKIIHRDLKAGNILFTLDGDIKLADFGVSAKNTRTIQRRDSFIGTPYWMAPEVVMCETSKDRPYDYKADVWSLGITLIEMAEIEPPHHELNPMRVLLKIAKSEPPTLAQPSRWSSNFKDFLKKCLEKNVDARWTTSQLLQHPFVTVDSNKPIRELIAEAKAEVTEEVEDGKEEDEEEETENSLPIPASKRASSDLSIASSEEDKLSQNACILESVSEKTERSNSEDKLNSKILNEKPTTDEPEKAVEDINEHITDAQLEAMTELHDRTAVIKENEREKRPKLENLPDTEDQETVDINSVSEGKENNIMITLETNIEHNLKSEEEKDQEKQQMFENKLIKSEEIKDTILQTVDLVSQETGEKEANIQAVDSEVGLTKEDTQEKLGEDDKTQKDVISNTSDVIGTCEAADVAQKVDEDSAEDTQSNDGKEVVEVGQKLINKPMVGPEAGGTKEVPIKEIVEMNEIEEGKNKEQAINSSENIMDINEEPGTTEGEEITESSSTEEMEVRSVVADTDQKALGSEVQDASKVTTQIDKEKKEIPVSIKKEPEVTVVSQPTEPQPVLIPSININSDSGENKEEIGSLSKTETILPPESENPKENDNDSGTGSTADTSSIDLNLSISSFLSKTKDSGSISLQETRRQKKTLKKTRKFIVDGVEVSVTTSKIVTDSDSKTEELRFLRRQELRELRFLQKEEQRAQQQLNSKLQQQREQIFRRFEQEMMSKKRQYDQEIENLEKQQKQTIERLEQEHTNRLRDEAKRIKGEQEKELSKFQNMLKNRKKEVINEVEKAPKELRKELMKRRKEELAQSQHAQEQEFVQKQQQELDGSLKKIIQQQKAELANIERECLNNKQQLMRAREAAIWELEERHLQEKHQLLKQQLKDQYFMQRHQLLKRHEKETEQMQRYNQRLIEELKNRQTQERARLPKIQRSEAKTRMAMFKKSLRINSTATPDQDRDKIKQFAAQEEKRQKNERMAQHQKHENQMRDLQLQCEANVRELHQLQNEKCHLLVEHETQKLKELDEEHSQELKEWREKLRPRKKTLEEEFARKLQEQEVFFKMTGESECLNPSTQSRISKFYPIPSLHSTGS
Excerpt: (§1) ; FIG. 38C). […]. Further targeted analyses, such as genetic knock-down or knock-out, may be warranted to parse the role of these additional kinases in our model of neurodegeneration.

[2] = target: T2, panel of 371 human kinases (Homo sapiens, UniProt P04626); conditions: ERBB2/HER2; 0.1 μM; 10 μM ATP; read-out: % Enzyme Activity (relative to DMSO controls)
T2 construct: purchased Reaction Biology Corp
Excerpt: as §1

[3] = target: T3, panel of 371 human kinases (Homo sapiens, UniProt O43318); conditions: TAK1; 0.1 μM; 10 μM ATP; read-out: % Enzyme Activity (relative to DMSO controls)
T3 construct: purchased Reaction Biology Corp
Excerpt: as §1

[4] = target: T4, panel of 371 human kinases (Homo sapiens, UniProt P54764); conditions: EPHA4; 0.1 μM; 10 μM ATP; read-out: % Enzyme Activity (relative to DMSO controls)
T4 construct: purchased Reaction Biology Corp
Excerpt: as §1

[5] = target: T5, panel of 371 human kinases (Homo sapiens, UniProt P22607); conditions: FGFR3; 0.1 μM; 10 μM ATP; read-out: % Enzyme Activity (relative to DMSO controls)
T5 construct: purchased Reaction Biology Corp
Excerpt: as §1

[6] = target: T6, panel of 371 human kinases (Homo sapiens, UniProt O75460); conditions: ERN1/IRE1; 0.1 μM; 10 μM ATP; read-out: % Enzyme Activity (relative to DMSO controls)
T6 construct: purchased Reaction Biology Corp
Excerpt: as §1

[7] = target: T7, panel of 371 human kinases (Homo sapiens, UniProt O75914); conditions: PAK3; 0.1 μM; 10 μM ATP; read-out: % Enzyme Activity (relative to DMSO controls)
T7 construct: purchased Reaction Biology Corp
Excerpt: as §1

[8] = target: T8, panel of 371 human kinases (Homo sapiens, UniProt Q8TF76); conditions: Haspin; 0.1 μM; 10 μM ATP; read-out: % Enzyme Activity (relative to DMSO controls)
T8 construct: purchased Reaction Biology Corp
Excerpt: as §1

[9] = target: T9, panel of 371 human kinases (Homo sapiens, UniProt Q16288); conditions: TRKC; 0.1 μM; 10 μM ATP; read-out: % Enzyme Activity (relative to DMSO controls)
T9 construct: purchased Reaction Biology Corp
Excerpt: as §1

[10] = target: T10, panel of 371 human kinases (Homo sapiens, UniProt Q8N4C8); conditions: for remaining activity at 0.1 µM: MINK/MINK1, 10 μM ATP, read-out: % Enzyme Activity (relative to DMSO controls)
T10 construct: purchased Reaction Biology Corp
T10 sequence (Q8N4C8 whole entry): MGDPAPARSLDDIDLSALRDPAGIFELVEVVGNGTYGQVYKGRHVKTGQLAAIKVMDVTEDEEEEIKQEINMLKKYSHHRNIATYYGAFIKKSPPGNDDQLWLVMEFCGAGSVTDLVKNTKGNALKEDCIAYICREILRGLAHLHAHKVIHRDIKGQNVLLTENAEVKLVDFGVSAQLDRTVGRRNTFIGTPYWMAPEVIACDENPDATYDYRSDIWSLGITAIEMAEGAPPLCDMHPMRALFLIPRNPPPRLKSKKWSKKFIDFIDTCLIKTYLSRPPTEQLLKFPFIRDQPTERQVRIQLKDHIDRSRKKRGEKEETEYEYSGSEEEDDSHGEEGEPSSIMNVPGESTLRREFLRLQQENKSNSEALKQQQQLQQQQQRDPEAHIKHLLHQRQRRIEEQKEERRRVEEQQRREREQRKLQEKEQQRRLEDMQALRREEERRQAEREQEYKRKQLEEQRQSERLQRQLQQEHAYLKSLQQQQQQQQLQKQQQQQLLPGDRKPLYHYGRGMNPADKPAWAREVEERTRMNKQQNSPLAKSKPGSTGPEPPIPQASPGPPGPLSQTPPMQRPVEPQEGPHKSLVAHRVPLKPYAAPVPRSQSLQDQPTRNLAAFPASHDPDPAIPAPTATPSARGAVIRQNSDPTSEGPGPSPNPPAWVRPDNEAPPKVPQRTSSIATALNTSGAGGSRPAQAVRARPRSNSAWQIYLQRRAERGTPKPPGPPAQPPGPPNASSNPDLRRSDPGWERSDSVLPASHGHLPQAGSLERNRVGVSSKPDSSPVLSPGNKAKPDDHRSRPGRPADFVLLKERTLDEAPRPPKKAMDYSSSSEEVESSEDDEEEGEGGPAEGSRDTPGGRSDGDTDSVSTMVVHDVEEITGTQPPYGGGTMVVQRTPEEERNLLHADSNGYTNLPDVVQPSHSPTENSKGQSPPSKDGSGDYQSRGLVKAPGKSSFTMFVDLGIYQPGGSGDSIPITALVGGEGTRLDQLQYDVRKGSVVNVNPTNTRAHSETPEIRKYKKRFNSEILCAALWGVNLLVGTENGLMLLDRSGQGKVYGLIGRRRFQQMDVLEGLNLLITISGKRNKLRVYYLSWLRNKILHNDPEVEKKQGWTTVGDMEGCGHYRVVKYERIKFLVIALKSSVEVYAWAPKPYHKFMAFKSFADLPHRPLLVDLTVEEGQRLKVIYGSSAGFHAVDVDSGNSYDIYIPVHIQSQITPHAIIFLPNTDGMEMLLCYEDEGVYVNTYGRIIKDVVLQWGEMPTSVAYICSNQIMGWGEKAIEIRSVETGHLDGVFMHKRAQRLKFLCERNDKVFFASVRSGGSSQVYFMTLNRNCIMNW
Excerpt: as §1

[11] = target: T11, panel of 371 human kinases (Homo sapiens, UniProt Q8IY84); conditions: NIM1; 0.1 μM; 10 μM ATP; read-out: % Enzyme Activity (relative to DMSO controls)
T11 construct: purchased Reaction Biology Corp
Excerpt: as §1

[12] = target: T12, panel of 371 human kinases (Homo sapiens, UniProt P50613); conditions: CDK7/cyclin H; 0.1 μM; 10 μM ATP; read-out: % Enzyme Activity (relative to DMSO controls)
T12 construct: purchased Reaction Biology Corp
Excerpt: as §1

[13] = target: T13, panel of 371 human kinases (Homo sapiens, UniProt Q9UHD2); conditions: TBK1; 0.1 μM; 10 μM ATP; read-out: % Enzyme Activity (relative to DMSO controls)
T13 construct: purchased Reaction Biology Corp
Excerpt: as §1

[14] = target: T14, panel of 371 human kinases (Homo sapiens, UniProt P22694); conditions: PKAcb; 0.1 μM; 10 μM ATP; read-out: % Enzyme Activity (relative to DMSO controls)
T14 construct: purchased Reaction Biology Corp
Excerpt: as §1

[15] = target: T15, panel of 371 human kinases (Homo sapiens, UniProt Q04771); conditions: ALK2/ACVR1; 0.1 μM; 10 μM ATP; read-out: % Enzyme Activity (relative to DMSO controls)
T15 construct: purchased Reaction Biology Corp
T15 sequence (Q04771 21-509): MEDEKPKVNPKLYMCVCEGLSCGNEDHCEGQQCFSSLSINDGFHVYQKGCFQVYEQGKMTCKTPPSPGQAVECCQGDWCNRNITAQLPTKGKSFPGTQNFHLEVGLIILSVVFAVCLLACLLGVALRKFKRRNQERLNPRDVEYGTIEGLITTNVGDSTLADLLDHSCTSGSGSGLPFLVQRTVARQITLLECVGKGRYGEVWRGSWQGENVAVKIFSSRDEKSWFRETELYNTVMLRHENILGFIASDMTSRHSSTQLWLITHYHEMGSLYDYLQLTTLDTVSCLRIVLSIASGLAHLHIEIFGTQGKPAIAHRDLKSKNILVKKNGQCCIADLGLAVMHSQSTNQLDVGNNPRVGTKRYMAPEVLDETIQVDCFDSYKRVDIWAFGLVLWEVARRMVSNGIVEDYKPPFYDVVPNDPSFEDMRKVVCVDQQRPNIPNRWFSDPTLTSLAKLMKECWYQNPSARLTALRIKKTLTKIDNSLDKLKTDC
Excerpt: as §1

[16] = target: T16, panel of 371 human kinases (Homo sapiens, UniProt Q9P0L2); conditions: MARK1; 0.1 μM; 10 μM ATP; read-out: % Enzyme Activity (relative to DMSO controls)
T16 construct: purchased Reaction Biology Corp
T16 sequence (Q9P0L2 whole entry): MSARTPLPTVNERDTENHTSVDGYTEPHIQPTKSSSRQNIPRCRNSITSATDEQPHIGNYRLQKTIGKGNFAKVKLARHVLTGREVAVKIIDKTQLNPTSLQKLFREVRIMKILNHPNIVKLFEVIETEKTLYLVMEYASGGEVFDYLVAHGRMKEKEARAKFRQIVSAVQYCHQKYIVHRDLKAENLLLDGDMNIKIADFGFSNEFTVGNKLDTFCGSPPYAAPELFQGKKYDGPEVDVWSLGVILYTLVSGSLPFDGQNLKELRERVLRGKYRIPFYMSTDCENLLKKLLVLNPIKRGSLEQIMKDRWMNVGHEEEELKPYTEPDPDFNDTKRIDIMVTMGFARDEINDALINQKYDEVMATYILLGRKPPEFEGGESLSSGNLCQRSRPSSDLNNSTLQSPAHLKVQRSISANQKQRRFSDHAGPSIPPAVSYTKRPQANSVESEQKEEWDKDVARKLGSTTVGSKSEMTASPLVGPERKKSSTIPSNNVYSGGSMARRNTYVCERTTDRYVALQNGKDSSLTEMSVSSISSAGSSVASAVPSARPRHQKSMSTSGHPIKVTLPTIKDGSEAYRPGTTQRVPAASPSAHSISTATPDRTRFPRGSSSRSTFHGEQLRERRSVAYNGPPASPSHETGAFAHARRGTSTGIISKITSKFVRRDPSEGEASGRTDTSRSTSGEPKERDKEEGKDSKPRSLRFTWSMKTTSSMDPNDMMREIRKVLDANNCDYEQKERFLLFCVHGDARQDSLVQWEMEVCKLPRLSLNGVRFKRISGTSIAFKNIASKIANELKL
Excerpt: as §1

[17] = target: T17, panel of 371 human kinases (Homo sapiens, UniProt Q9HCP0); conditions: CK1g1; 0.1 μM; 10 μM ATP; read-out: % Enzyme Activity (relative to DMSO controls)
T17 construct: purchased Reaction Biology Corp
Excerpt: as §1

[18] = target: T18, panel of 371 human kinases (Homo sapiens, UniProt O00141); conditions: SGK1; 0.1 μM; 10 μM ATP; read-out: % Enzyme Activity (relative to DMSO controls)
T18 construct: purchased Reaction Biology Corp
T18 sequence (O00141 whole entry): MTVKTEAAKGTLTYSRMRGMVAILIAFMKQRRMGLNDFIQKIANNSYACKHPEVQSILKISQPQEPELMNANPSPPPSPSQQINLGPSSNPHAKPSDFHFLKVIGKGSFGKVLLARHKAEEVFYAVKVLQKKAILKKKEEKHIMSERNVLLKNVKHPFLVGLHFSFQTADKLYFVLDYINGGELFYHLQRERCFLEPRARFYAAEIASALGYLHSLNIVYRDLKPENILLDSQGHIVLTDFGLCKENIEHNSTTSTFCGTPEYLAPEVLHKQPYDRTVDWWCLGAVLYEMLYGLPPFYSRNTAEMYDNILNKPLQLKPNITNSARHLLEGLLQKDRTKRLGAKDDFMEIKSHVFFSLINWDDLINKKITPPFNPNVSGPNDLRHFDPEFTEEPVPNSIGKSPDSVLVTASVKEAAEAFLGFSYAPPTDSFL
Excerpt: as §1

[19] = target: T19, panel of 371 human kinases (Homo sapiens, UniProt P24941); conditions: 0.1 μM, 10 μM ATP, read-out: % Enzyme Activity (relative to DMSO controls)
T19 construct: purchased Reaction Biology Corp
Excerpt: as §1

[20] = target: T20, panel of 371 human kinases (Homo sapiens, UniProt P45983); conditions: JNK1; 0.1 μM; 10 μM ATP; read-out: % Enzyme Activity (relative to DMSO controls)
T20 construct: purchased Reaction Biology Corp
Excerpt: as §1

[21] = target: T21, panel of 371 human kinases (Homo sapiens, UniProt Q13873); conditions: BMPR2; 0.1 μM; 10 μM ATP; read-out: % Enzyme Activity (relative to DMSO controls)
T21 construct: purchased Reaction Biology Corp
Excerpt: as §1

[22] = target: T22, panel of 371 human kinases (Homo sapiens, UniProt Q13976); conditions: PKG1a; 0.1 μM; 10 μM ATP; read-out: % Enzyme Activity (relative to DMSO controls)
T22 construct: purchased Reaction Biology Corp
Excerpt: as §1

[23] = target: T23, panel of 371 human kinases (Homo sapiens, UniProt Q9HBH9); conditions: MNK2; 0.1 μM; 10 μM ATP; read-out: % Enzyme Activity (relative to DMSO controls)
T23 construct: purchased Reaction Biology Corp
Excerpt: as §1

[24] = target: T24, panel of 371 human kinases (Homo sapiens, UniProt Q14680); conditions: MELK; 0.1 μM; 10 μM ATP; read-out: % Enzyme Activity (relative to DMSO controls)
T24 construct: purchased Reaction Biology Corp
T24 sequence (Q14680 whole entry): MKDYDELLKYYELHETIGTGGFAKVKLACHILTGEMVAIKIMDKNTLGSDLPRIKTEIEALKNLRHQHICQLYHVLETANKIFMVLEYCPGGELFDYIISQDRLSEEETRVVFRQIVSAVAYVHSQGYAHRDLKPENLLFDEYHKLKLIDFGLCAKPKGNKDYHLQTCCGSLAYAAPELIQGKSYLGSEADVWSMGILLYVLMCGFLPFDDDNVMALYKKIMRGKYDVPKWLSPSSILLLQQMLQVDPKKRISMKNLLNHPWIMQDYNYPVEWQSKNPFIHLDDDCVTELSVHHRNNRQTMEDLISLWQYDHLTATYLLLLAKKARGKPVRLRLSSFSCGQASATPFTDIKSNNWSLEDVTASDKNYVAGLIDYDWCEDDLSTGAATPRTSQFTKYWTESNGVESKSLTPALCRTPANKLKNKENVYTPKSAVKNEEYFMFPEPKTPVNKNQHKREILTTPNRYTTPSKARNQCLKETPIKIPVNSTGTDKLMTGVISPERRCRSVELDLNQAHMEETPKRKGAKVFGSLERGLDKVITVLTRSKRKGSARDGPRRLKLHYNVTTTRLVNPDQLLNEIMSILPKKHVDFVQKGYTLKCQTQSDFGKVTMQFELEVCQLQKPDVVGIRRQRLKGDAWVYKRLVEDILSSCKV
Excerpt: as §1

Row | Compound | remaining activity at 0.1 µM [1] | remaining activity at 0.1 µM [2] | remaining activity at 0.1 µM [3] | remaining activity at 0.1 µM [4] | remaining activity at 0.1 µM [5] | remaining activity at 0.1 µM [6] | remaining activity at 0.1 µM [7] | remaining activity at 0.1 µM [8] | remaining activity at 0.1 µM [9] | remaining activity at 0.1 µM [10] | remaining activity at 0.1 µM [11] | remaining activity at 0.1 µM [12] | remaining activity at 0.1 µM [13] | remaining activity at 0.1 µM [14] | remaining activity at 0.1 µM [15] | remaining activity at 0.1 µM [16] | remaining activity at 0.1 µM [17] | remaining activity at 0.1 µM [18] | remaining activity at 0.1 µM ([19]; CDK2/cyclin A1) | remaining activity at 0.1 µM ([19]; CDK2/cyclin A) | also measured
1 | CN1CCN(Cc2ccc(-c3cnc4[nH]cc(-c5ccc6[nH]ccc6c5)c4c3)cc2)CC1 [Compound 1, 3-(1H-Indol-5-yl)-5-(4-((4-methylpiperazin-1-yl)methyl)phenyl)-1H-pyrrolo[2,3-b]pyridine, reference compound] | 93.2% | 95.3% | 84.6% | 94.2% | 76.7% | 107% | 97.3% | 128% | 19.4% | 22.6% | 106% | 91.4% | 82.8% | 106% | 121% | 86.2% | 143% | 96% | 94.2% | 90.2% | remaining activity at 0.1 µM ([19]; CDK2/cyclin E2): 110%; remaining activity at 0.1 µM ([19]; CDK2/cyclin E): 96.1%; remaining activity at 0.1 µM ([19]; CDK2/cyclin O): 102%; remaining activity at 0.1 µM [20]: 98.2%; remaining activity at 0.1 µM [21]: 90.5%; remaining activity at 0.1 µM [22]: 101%; remaining activity at 0.1 µM [23]: 97.6%; remaining activity at 0.1 µM [24]: 48.1%
2 | OCCN1CCN(Cc2ccc(-c3cnc4[nH]cc(-c5cccc(Cl)c5)c4c3)cc2)CC1 [Compound 12k, 2-(4-(4-(3-(3-Chlorophenyl)-1H-pyrrolo[2,3-b]pyridin-5-yl)benzyl)piperazin-1-yl)ethan-1-ol] | 83.5% | 96% | 77.4% | 88.7% | 80.9% | 98.9% | 90.8% | 75% | 52.2% | -0.71% | 105% | 89.2% | 75.2% | 92.6% | 126% | 52.5% | 116% | 99.6% | 87.1% | 83.1% | fold change in MINK1 activity following 12k exposure relative to 1 ([10]; 0.025 μM): 22.56 fold; remaining activity at 0.1 µM ([19]; CDK2/cyclin E2): 89.6%; remaining activity at 0.1 µM ([19]; CDK2/cyclin E): 98.3%; remaining activity at 0.1 µM ([19]; CDK2/cyclin O): 82.5%; remaining activity at 0.1 µM [20]: 86.8%; remaining activity at 0.1 µM [21]: 90.3%; remaining activity at 0.1 µM [22]: 108%; remaining activity at 0.1 µM [23]: 65.2%; remaining activity at 0.1 µM [24]: 71%
